Structures are written as SMILES. Where only a bound is given, the exact number is not on record here.

One assay deals with MV-411 cells. The assay is described as follows: Anti-proliferative activity against MV-411 leukemia cells (CellTiterGlo viability, 72 h). It is filed as cell-based. Particulars: Homo sapiens, MV4-11, 72 h, MV-411 human acute monocytic leukemia cells, a second value in parentheses is a further determination. As to the method: Procedure: MV-411 cells were seeded into 384 well plates at 2000 cells/well density in 50 μL total volume, according to plate map and were allowed to naturally sediment by waiting about 30 min on a Clean Bench. Next, plated cells were centrifuged for 1 min at 1000 rpm and the excess cells were transferred into the flasks for further culture. Cells in the assay plates were incubated (at least 4 hrs.) at 37° C., 5% CO2 followed by adding the compounds as the plate map indicated. The tests were performed in duplicates with treatment of compounds at 10 pts 3-fold titration in 384 well plates. Taxol was used as positive control while DMSO as negative control. To rule out edge effect, the wells on the edge were not seeded and therefore one 384 well plate holds 13 compounds. Cells viability was measured 72h after incubation with compounds using CellTiterGlo (promega) viability assay according to manufacturer's instruction to check the ATP production in each well.
Experiments on anti-proliferative activity against leukemia cells were conducted with some of the compounds of the invention.
For the compound `C[C@@H]1CN(c2ccc(-n3cc(C(=O)NCCCN4CCOCC4)nn3)cc2NC(=O)c2cnc(Cl)cc2C(F)(F)F)C[C@H](C)N1C` [Compound 1], the GI50 (commonly the concentration that inhibits growth by half) stood at 1.38 µM.
Regarding `C[C@@H]1CN(c2ccc(-n3cc(C(=O)NCCCN4CCOCC4)nn3)cc2NC(=O)c2c[nH]c(=O)cc2C(F)(F)F)C[C@H](C)N1C` [Compound 2], the GI50 is greater than 200 µM.
As to `CN1CCN(c2ccc(-n3cc(C(=O)NCCCN4CCOCC4)nn3)cc2NC(=O)c2c[nH]c(=O)cc2C(F)(F)F)CC1` [Compound 4], the 50% growth inhibitory concentration (GI50) was greater than 200 µM.
Consider `C[C@@H]1CN(c2cc(F)c(-n3cc(C(=O)NCCCN4CCOCC4)nn3)cc2NC(=O)c2cnc(Cl)cc2C(F)(F)F)C[C@H](C)N1C` [Compound 5], for which the GI50 amounted to 7.26 µM.
The same measure, in the same setting: then `C[C@@H]1CN(c2cc(F)c(-n3cc(C(=O)NCCCN4CCOCC4)nn3)cc2NC(=O)c2c[nH]c(=O)cc2C(F)(F)F)C[C@H](C)N1C` [Compound 6], with greater than 200 µM; and `CN1CCN(c2cc(F)c(-n3cc(C(=O)NCCCN4CCOCC4)nn3)cc2NC(=O)c2c[nH]c(=O)cc2C(F)(F)F)CC1` [Compound 8], with greater than 200 µM; and `C[C@H]1CN(c2ccc(-n3cc(C(=O)NCCCN4CCOCC4)nn3)cc2NC(=O)c2c[nH]c(=O)cc2C(F)(F)F)CCN1C` [Compound 10], with greater than 200 µM.
With `CN1CCN(c2ccc(-n3cc(C(=O)NCCCN4CCOCC4)nn3)cc2NC(=O)c2cnc(F)cc2C(F)(F)F)CC1` [Compound 11], the GI50 came out at 2.14 µM.
For the compound `Cc1cc(C(F)(F)F)c(C(=O)Nc2cc(-n3cc(C(=O)NCCCN4CCOCC4)nn3)ccc2N2CCN(C)CC2)cn1` [Compound 12], the 50% growth inhibitory concentration (GI50) is 60.1 µM.
Same read-out and setting: then `CN1CCN(c2ccc(-n3cc(C(=O)NCCCN4CCOCC4)nn3)cc2NC(=O)c2cnc(C#N)cc2C(F)(F)F)CC1` [Compound 13], with 21.8 µM; and `CSc1cc(C(F)(F)F)c(C(=O)Nc2cc(-n3cc(C(=O)NCCCN4CCOCC4)nn3)ccc2N2CCN(C)CC2)cn1` [Compound 14], with 25.3 µM.
For the compound `CN1CCN(c2ccc(-n3cc(C(=O)NCCCN4CCOCC4)nn3)cc2NC(=O)c2cnc(S(C)(=O)=O)cc2C(F)(F)F)CC1` [Compound 15], the concentration for 50% growth inhibition (GI50) is greater than 237 µM.
`COc1cc(C(F)(F)F)c(C(=O)Nc2cc(-n3cc(C(=O)NCCCN4CCOCC4)nn3)ccc2N2CCN(C)CC2)cn1` [Compound 16]: the GI50 was determined as 51.9 µM.
Turning to `CN1CCN(c2ccc(-n3cc(C(=O)NCCCN4CCOCC4)nn3)cc2NC(=O)c2cnc(N)cc2C(F)(F)F)CC1` [Compound 18], the 50% growth inhibitory concentration (GI50) was 42.7 µM.
`CN1CCN(c2ccc(-n3cc(C(=O)NCCCN4CCOCC4)nn3)cc2NC(=O)c2cnc(Cl)cc2Cl)CC1` [Compound 19]: the GI50 came out at 0.91 µM.
In the case of `CN1CCN(c2ccc(-n3cc(C(=O)NCCCN4CCOCC4)nn3)cc2NC(=O)c2cnc(C(F)(F)F)cc2Cl)CC1` [Compound 20], the GI50 turned out to be 2.86 µM.
Same read-out and setting: then `Cc1c(Cl)ncc(C(=O)Nc2cc(-n3cc(C(=O)NCCCN4CCOCC4)nn3)ccc2N2CCN(C)CC2)c1Cl` [Compound 21], with 2.5 µM; and `CN1CCN(c2ccc(-n3cc(C(=O)NCCCN4CCOCC4)nn3)cc2NC(=O)c2cnc(C(F)F)cc2Cl)CC1` [Compound 22], with 39.7 µM.
As to `CN1CCN(c2ccc(-n3cc(C(=O)NCCCN4CCOCC4)nn3)cc2NC(=O)c2cnc(C#N)cc2N(C)C)CC1` [Compound 23], the concentration for 50% growth inhibition (GI50) came out at 196 µM.
Same read-out and setting: the same measure for `Cc1cc(N)ncc1C(=O)Nc1cc(-n2cc(C(=O)NCCCN3CCOCC3)nn2)ccc1N1CCN(C)CC1` [Compound 24]: greater than 200 µM; for `Cc1cc(F)ncc1C(=O)Nc1cc(-n2cc(C(=O)NCCCN3CCOCC3)nn2)ccc1N1CCN(C)CC1` [Compound 25]: 146 µM; for `Cc1ncc(C(=O)Nc2cc(-n3cc(C(=O)NCCCN4CCOCC4)nn3)ccc2N2CCN(C)CC2)c(C(F)(F)F)n1` [Compound 26]: 75.2 µM.
In the case of `CSc1ncc(C(=O)Nc2cc(-n3cc(C(=O)NCCCN4CCOCC4)nn3)ccc2N2CCN(C)CC2)c(C(F)(F)F)n1` [Compound 27], the GI50 came to 18.5 µM.
On the same count and under the same terms, the same measure for `CN1CCN(c2ccc(-n3cc(C(=O)NCCCN4CCOCC4)nn3)cc2NC(=O)c2cnc([S+](C)[O-])nc2C(F)(F)F)CC1` (stereo not shown) [Compound 28]: greater than 200 µM.
For `CCOc1ncc(C(=O)Nc2cc(-n3cc(C(=O)NCCCN4CCOCC4)nn3)ccc2N2CCN(C)CC2)c(C(F)(F)F)n1` [Compound 29], the GI50 was determined as 18.4 µM.
As to `COc1nc(SC)ncc1C(=O)Nc1cc(-n2cc(C(=O)NCCCN3CCOCC3)nn2)ccc1N1CCN(C)CC1` [Compound 30], the 50% growth inhibitory concentration (GI50) came out at 12.2 µM.
With `Cc1nc(C(F)(F)F)ncc1C(=O)Nc1cc(-n2cc(C(=O)NCCCN3CCOCC3)nn2)ccc1N1CCN(C)CC1` [Compound 31], the GI50 amounted to 106 µM.
Still for that read-out and setting: then `CN1CCN(c2ccc(-n3cc(C(=O)NCCCN4CCOCC4)nn3)cc2NC(=O)c2nnc(Cl)cc2Cl)CC1` [Compound 32], with 1.24 µM; and `CN1CCN(c2ccc(-n3cc(C(=O)NCCCN4CCOCC4)nn3)cc2NC(=O)c2nnc(Cl)cc2N)CC1` [Compound 33], with 35.3 µM; and `CN1CCN(c2ccc(-n3cc(C(=O)NCCCN4CCOCC4)nn3)cc2NC(=O)c2ncc(Cl)nc2Cl)CC1` [Compound 34], with 0.37 µM.
As for `COc1cnc(C(=O)Nc2cc(-n3cc(C(=O)NCCCN4CCOCC4)nn3)ccc2N2CCN(C)CC2)c(Cl)n1` [Compound 35], the GI50 came out at 2.42 µM.
With `COc1cnc(C(=O)Nc2cc(-n3cc(C(=O)NCCCN4CCOCC4)nn3)ccc2N2CCN(C)CC2)c(OC)n1` [Compound 36], the concentration for 50% growth inhibition (GI50) was 28.2 µM.
As to `CN1CCN(c2ccc(-n3cc(C(=O)NCCCN4CCOCC4)nn3)cc2NC(=O)c2ccc(Cl)nc2C(F)(F)F)CC1` [Compound 37], the GI50 was found to be 44.3 µM.
Take `COc1ccc(C(=O)Nc2cc(-n3cc(C(=O)NCCCN4CCOCC4)nn3)ccc2N2CCN(C)CC2)c(C(F)(F)F)n1` [Compound 38]: the concentration for 50% growth inhibition (GI50) was 67.9 µM.
For the compound `CN1CCN(c2ccc(-n3cc(C(=O)NCCCN4CCOCC4)nn3)cc2NC(=O)c2ccc(C#N)nc2C(F)(F)F)CC1` [Compound 39], the 50% growth inhibitory concentration (GI50) was 20.2 µM.
In the case of `CN1CCN(c2ccc(-n3cc(C(=O)NCCCN4CCOCC4)nn3)cc2NC(=O)c2ccc(C(N)=O)nc2C(F)(F)F)CC1` [Compound 40], the GI50 is greater than 200 µM.
For `CN1CCN(c2ccc(-n3cc(C(=O)NCCCN4CCOCC4)nn3)cc2NC(=O)c2ccc(N)nc2C(F)(F)F)CC1` [Compound 41], the 50% growth inhibitory concentration (GI50) turned out to be 108 µM.
Still for that read-out and setting: the same measure for `COc1ccc(CNc2ccc(C(=O)Nc3cc(-n4cc(C(=O)NCCCN5CCOCC5)nn4)ccc3N3CCN(C)CC3)c(C(F)(F)F)n2)cc1` [Compound 42]: 3.17 µM; for `CSc1ccc(C(=O)Nc2cc(-n3cc(C(=O)NCCCN4CCOCC4)nn3)ccc2N2CCN(C)CC2)c(C(F)(F)F)n1` [Compound 43]: 19.9 µM; for `CN1CCN(c2ccc(-n3cc(C(=O)NCCCN4CCOCC4)nn3)cc2NC(=O)c2ccc(S(C)(=O)=O)nc2C(F)(F)F)CC1` [Compound 44]: 49.9 µM.
On the same count and under the same terms, then `CN1CCN(c2ccc(-n3cc(C(=O)NCCCN4CCOCC4)nn3)cc2NC(=O)c2ncc(N)cn2)CC1` [Compound 45], with 11.2 µM; and `CN1CCN(c2ccc(-n3cc(C(=O)NCCCN4CCOCC4)nn3)cc2NC(=O)c2ccc(Cl)cc2C(F)(F)F)CC1` [Compound 46], with 22.4 µM.
On the same count and under the same terms, then `Cc1cc(Cl)c(C(=O)Nc2cc(-n3cc(C(=O)NCCCN4CCOCC4)nn3)ccc2N2CCN(C)CC2)cc1N` [Compound 49], with 27.7 µM.
Take `CCN(CC)C(=O)c1cn(-c2cc(NC(=O)c3cnc(Cl)cc3C(F)(F)F)c(N3C[C@@H](C)N(C)[C@@H](C)C3)cc2F)nn1` [Compound 50]: the GI50 turned out to be 0.49 µM.
Same read-out and setting: then `C[C@@H]1CN(c2cc(F)c(-n3cc(C(=O)N4CCN(C)CC4)nn3)cc2NC(=O)c2cnc(Cl)cc2C(F)(F)F)C[C@H](C)N1C` [Compound 51], with 1.14 µM; and `C[C@@H]1CN(c2cc(F)c(-n3cc(C(=O)NC4CCN(C)CC4)nn3)cc2NC(=O)c2cnc(Cl)cc2C(F)(F)F)C[C@H](C)N1C` [Compound 52], with 1.22 µM.
`CCN(CC)C(=O)c1cn(-c2cc(NC(=O)c3cnc(F)cc3C(F)(F)F)c(N3C[C@@H](C)N(C)[C@@H](C)C3)cc2F)nn1` [Compound 53]: the concentration for 50% growth inhibition (GI50) is 0.9 µM.
With `COc1cc(C(F)(F)F)c(C(=O)Nc2cc(-n3cc(C(=O)NC4CCN(C)CC4)nn3)c(F)cc2N2C[C@@H](C)N(C)[C@@H](C)C2)cn1` [Compound 54], the GI50 came to 14.3 µM.
For `COc1cc(C(F)(F)F)c(C(=O)Nc2cc(-n3cc(C(=O)NCCCN4CCOCC4)nn3)c(F)cc2N2C[C@@H](C)N(C)[C@@H](C)C2)cn1` [Compound 55], the concentration for 50% growth inhibition (GI50) is 27.8 µM.
Consider `CCN(CC)C(=O)c1cn(-c2cc(NC(=O)c3cnc(Cl)cc3Cl)c(N3C[C@@H](C)N(C)[C@@H](C)C3)cc2F)nn1` [Compound 56], for which the concentration for 50% growth inhibition (GI50) was found to be 1.17 µM.
Same read-out and setting: the same measure for `C[C@@H]1CN(c2cc(F)c(-n3cc(C(=O)N4CCN(C)CC4)nn3)cc2NC(=O)c2cnc(Cl)cc2Cl)C[C@H](C)N1C` [Compound 57]: 0.74 µM.
As to `C[C@@H]1CN(c2cc(F)c(-n3cc(C(=O)NC4CCN(C)CC4)nn3)cc2NC(=O)c2cnc(C(F)(F)F)cc2Cl)C[C@H](C)N1C` [Compound 58], the GI50 was 0.68 µM.

Still in this assay, the particulars now being: MV-411 human acute monocytic leukemia cells, a second value in parentheses is a further determination.
Consider `CN1CCN(c2ccc(-n3cc(C(=O)NCCCN4CCOCC4)nn3)cc2NC(=O)c2cnc(F)cc2C(F)(F)F)CC1` [Compound 11], for which the GI50 was determined as 2.01 µM.
Take `Cc1cc(C(F)(F)F)c(C(=O)Nc2cc(-n3cc(C(=O)NCCCN4CCOCC4)nn3)ccc2N2CCN(C)CC2)cn1` [Compound 12]: the GI50 was determined as 88.8 µM.
As for `CN1CCN(c2ccc(-n3cc(C(=O)NCCCN4CCOCC4)nn3)cc2NC(=O)c2cnc(C#N)cc2C(F)(F)F)CC1` [Compound 13], the GI50 was found to be 23.7 µM.
`CSc1cc(C(F)(F)F)c(C(=O)Nc2cc(-n3cc(C(=O)NCCCN4CCOCC4)nn3)ccc2N2CCN(C)CC2)cn1` [Compound 14]: the GI50 was 21.4 µM.
With `CN1CCN(c2ccc(-n3cc(C(=O)NCCCN4CCOCC4)nn3)cc2NC(=O)c2cnc(Cl)cc2Cl)CC1` [Compound 19], the concentration for 50% growth inhibition (GI50) was 0.94 µM.
Turning to `CN1CCN(c2ccc(-n3cc(C(=O)NCCCN4CCOCC4)nn3)cc2NC(=O)c2cnc(C(F)(F)F)cc2Cl)CC1` [Compound 20], the concentration for 50% growth inhibition (GI50) came to 3.19 µM.
Same read-out and setting: then `Cc1c(Cl)ncc(C(=O)Nc2cc(-n3cc(C(=O)NCCCN4CCOCC4)nn3)ccc2N2CCN(C)CC2)c1Cl` [Compound 21], with 2.33 µM; and `Cc1ncc(C(=O)Nc2cc(-n3cc(C(=O)NCCCN4CCOCC4)nn3)ccc2N2CCN(C)CC2)c(C(F)(F)F)n1` [Compound 26], with 61.7 µM.
Regarding `CN1CCN(c2ccc(-n3cc(C(=O)NCCCN4CCOCC4)nn3)cc2NC(=O)c2ccc(Cl)nc2C(F)(F)F)CC1` [Compound 37], the concentration for 50% growth inhibition (GI50) was 46.2 µM.

Source of the values: patent US20230286948A1 (HUYABIO International, LLC, priority 2022, published 2023).
